{
  "source": "patent US11691972B2",
  "about": "“Compounds for targeted degradation of BRD9” (C4 Therapeutics, Inc., priority 2020, dated 2023)",
  "key": {"[1]": {"system": "Synovial Sarcoma PDX model (SA13412)", "assay": "Tumor volume in the Synovial Sarcoma PDX model (SA13412)", "assay_type": "in vivo", "conditions": "various concentrations, FIG. 23"}, "[2]": {"assay": "Body weight change in synovial sarcoma PDX model (SA13412)", "assay_type": "in vivo, mice", "conditions": "50 mg/kg once a day, 25 mg/kg twice a day, 16.6 mg/kg three times a day, FIG. 24", "from_the_text": "The x axis is treatment measured in days and the y axis is body weight change measured in percentage. Less than 15% loss of body weight was observed on average."}, "[3]": {"system": "synovial sarcoma xenograft model", "assay": "Tumor volume in a synovial sarcoma xenograft model (FIG. 1)", "assay_type": "in vivo"}, "BRD9 [4]": {"target": "T1, BRD9 (Homo sapiens, UniProt Q9H8M2)", "T1 sequence (Q9H8M2 1-597)": "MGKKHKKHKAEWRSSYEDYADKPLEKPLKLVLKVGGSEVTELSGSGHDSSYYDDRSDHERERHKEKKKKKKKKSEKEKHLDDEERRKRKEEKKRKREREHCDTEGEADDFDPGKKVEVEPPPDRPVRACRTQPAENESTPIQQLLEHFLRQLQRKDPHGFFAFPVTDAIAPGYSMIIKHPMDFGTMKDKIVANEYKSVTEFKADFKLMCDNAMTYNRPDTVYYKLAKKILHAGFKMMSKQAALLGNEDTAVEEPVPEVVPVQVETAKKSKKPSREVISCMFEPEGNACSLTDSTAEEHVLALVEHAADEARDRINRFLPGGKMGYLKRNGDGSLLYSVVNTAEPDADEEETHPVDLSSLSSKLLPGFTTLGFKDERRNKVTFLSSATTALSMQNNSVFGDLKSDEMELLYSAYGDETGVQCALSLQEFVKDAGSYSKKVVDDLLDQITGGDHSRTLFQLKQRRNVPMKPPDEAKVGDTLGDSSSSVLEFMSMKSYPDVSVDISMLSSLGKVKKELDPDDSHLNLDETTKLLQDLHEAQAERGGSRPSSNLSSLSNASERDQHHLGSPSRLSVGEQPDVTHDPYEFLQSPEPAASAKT", "assay": "In-vivo BRD9 degradation in the Yamato-SS xenograft model", "conditions": "various concentrations and times, FIG. 12"}, "BRD4": {"target": "T2, BRD4 (Homo sapiens, UniProt O60885)", "T2 construct": "endogenously expressing BRD4 with HiBiT fusion tag via CRISPR; endogenous in cells; host or cells: 293T.92 (BRD4-HiBiT), generated in-house, also expressing LgBiT ectopically", "assay": "BRD4 degradation (24 h), HiBiT 293T.92 cells", "assay_type": "cell-based", "from_the_text": "Dulbecco's modified Eagle medium (DMEM) without phenol red and fetal bovine serum (FBS) were purchased from Gibco (Grand Island, N.Y., USA). Nano-Glo® HiBiT Lytic Assay System was purchased from Promega (Madison, Wis., USA). 293T.166 (BRD9-HiBiT) cell line, endogenously expressing BRD9 with HiBiT fusion tag via CRISPR and ectopically expressing LgBiT tag, was purchased from Promega (Madison, Wis., USA). 293T.167 (BRD7-HiBiT) cell line, endogenously expressing BRD7 with HiBiT fusion tag via CRISPR and ectopically expressing LgBiT tag, was purchased from Promega (Madison, Wis., USA). 293T.92 (BRD4-HiBiT) cell line, endogenously expressing BRD4 with HiBiT fusion tag via CRISPR and ectopically expressing LgBiT tag, was generated in-house. Cell culture flasks and 384-well microplates were acquired from VWR (Radnor, Pa., USA).\nBRD9 degradation was determined based on quantification of luminescent signal using Nano-Glo® HiBiT Lytic Assay kit. Test compounds were added to the 384-well plate from a top concentration of 10 μM with 11 points, half log titration in duplicates. 293T.166 cells were added into 384-well plates at a cell density of 10,000 cells per well. […] BRD7 and BRD4 degradation was similarly determined with 293T.167 cells and 293T.92 cells, respectively. […] Luminescence was acquired on EnVision™ Multilabel Reader (PerkinElmer, Santa Clara, Calif., USA)."}, "SW982": {"system": "SW982", "assay": "SW982 viability (GI50)", "assay_type": "cell-based", "conditions": "Homo sapiens; SW982 cells"}, "IKZF1": {"target": "IKZF1 (Homo sapiens, UniProt Q13422)", "sequence (Q13422 whole entry, species assumed)": "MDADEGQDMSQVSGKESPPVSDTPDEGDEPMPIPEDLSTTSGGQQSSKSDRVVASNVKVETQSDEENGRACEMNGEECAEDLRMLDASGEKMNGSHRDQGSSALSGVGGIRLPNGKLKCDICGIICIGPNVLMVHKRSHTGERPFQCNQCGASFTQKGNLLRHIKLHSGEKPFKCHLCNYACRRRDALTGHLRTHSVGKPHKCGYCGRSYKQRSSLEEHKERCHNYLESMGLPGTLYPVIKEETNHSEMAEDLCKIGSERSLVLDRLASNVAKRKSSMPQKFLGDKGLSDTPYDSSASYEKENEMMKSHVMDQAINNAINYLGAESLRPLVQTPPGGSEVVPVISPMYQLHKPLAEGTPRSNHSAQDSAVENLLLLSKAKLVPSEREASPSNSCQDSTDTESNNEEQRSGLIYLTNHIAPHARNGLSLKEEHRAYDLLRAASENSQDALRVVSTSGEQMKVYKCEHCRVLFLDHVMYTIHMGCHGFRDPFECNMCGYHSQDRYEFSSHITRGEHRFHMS", "assay": "IKZF1 degradation", "assay_type": "cell-based", "conditions": "one value given for IKZF1/SALL4/GSPT1"}, "HEPG2": {"system": "HEPG2", "assay": "HEPG2 viability", "assay_type": "cell-based", "conditions": "HEPG2 cells"}, "CYP 1A2": {"target": "CYP 1A2 (Homo sapiens, UniProt P05177)", "sequence (P05177 whole entry)": "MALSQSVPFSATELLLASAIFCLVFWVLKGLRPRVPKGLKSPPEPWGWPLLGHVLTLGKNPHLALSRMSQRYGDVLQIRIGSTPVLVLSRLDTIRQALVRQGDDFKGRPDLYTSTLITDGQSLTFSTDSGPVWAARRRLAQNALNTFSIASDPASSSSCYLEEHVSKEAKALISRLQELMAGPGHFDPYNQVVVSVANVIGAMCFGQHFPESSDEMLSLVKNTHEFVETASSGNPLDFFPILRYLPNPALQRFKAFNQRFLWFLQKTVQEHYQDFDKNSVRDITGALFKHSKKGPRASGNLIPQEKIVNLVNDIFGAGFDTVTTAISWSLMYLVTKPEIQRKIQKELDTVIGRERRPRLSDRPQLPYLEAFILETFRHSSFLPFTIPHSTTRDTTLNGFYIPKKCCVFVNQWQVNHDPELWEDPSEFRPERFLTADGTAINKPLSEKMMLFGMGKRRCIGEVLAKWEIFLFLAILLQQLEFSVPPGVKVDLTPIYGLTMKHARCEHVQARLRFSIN", "assay": "CYP inhibition 1A2", "assay_type": "in vitro ADME"}, "CYP 2C9": {"target": "CYP 2C9 (Homo sapiens, UniProt P11712)", "sequence (P11712 whole entry)": "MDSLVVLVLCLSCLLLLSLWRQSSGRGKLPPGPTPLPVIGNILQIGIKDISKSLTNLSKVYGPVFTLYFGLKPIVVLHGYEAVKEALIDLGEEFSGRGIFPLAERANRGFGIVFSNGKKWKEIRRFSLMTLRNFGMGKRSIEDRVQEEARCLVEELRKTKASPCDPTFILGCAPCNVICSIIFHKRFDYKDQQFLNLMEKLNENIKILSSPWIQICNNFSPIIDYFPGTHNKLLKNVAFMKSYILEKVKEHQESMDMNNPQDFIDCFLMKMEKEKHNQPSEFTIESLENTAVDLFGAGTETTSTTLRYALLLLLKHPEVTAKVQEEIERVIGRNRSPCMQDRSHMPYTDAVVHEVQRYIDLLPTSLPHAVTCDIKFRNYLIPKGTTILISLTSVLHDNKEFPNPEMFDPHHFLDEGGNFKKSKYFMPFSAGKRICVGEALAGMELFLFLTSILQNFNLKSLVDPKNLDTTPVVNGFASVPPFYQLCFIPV", "assay": "CYP inhibition 2C9", "assay_type": "in vitro ADME"}, "Caco-2 permeability": {"assay": "Caco-2 permeability", "assay_type": "in vitro ADME", "conditions": "human"}, "SA13412": {"system": "SA13412", "assay": "Synovial sarcoma patient derived xenograft (PDX) model (SA13412), tumor volume", "assay_type": "in vivo, mice", "conditions": "40 mg/kg orally once a day, 20 days of treatment", "procedure": "The x-axis is days after start of treatment measured in days and the y-axis is tumor volume measured in mm^3. The mice were dosed with 40 mg/kg of Compound 172 orally once a day. […] The x axis is treatment measured in days and the y axis is mean tumor volume+SEM measured in cubic millimeters (mm^3). Compound 176 was dosed at 50 mg/kg once a day, 25 mg/kg twice a day, and 16.6 mg/kg three times a day."}, "BRD9 [5]": {"target": "T1, BRD9", "assay": "BRD9 degradation kinetics", "assay_type": "cell-based", "design": "endogenously expressing BRD9 with HiBiT fusion tag via CRISPR; host or cells: 293T.166 (BRD9-HiBiT), also expressing LgBiT ectopically"}},
  "data": [
    {"smiles": "COc1cc(-c2cn(C)c(=O)c(C)c2C)cc(OC)c1CN1CCC(N2CCN(c3ccc(NC4CCC(=O)NC4=O)cc3F)CC2)C(F)(F)C1", "note": "(single isomer, unassigned) [Compound 176, 3-[4-[4-[1-[[2,6-dimethoxy-4-(1,4,5-trimethyl-6-oxo-3-pyridyl)phenyl]methyl]-3,3-difluoro-4-piperidyl]piperazin-1-yl]-3-fluoro-anilino]piperidine-2,6-dione]", "values": [
      {"measurement": "mean tumor volume+SEM", "setting": "[1]", "result": "efficacy"},
      {"measurement": "loss of body weight on average", "setting": "[2]", "result": "Less than 15%"}
    ]},
    {"smiles": "COc1cc(-c2cn(C)c(=O)c(C)c2C)cc(OC)c1CN1CCC(N2CCN(c3ccc(NC4CCC(=O)NC4=O)cc3F)CC2)C(F)(F)C1", "note": "(stereo not drawn) [Compound 172, 3-[4-[4-[1-[[2,6-dimethoxy-4-(1,4,5-trimethyl-6-oxo-3-pyridyl)phenyl]methyl]-3,3-difluoro-4-piperidyl]piperazin-1-yl]-3-fluoro-anilino]piperidine-2,6-dione]", "values": [
      {"measurement": "tumor volume after treatment", "setting": "[3]", "result": "strong effect"},
      {"measurement": "in-vivo BRD9 degradation (normalized concentration)", "setting": "BRD9 [4]", "result": "dose dependent in-vivo BRD9 degradation"},
      {"measurement": "Emax", "setting": "BRD4", "result": 81, "unit": "%"},
      {"measurement": "DC50", "setting": "BRD4; 24 h, read-out: BRD4 degradation (24 h), IP", "result": 2, "unit": "µM"},
      {"measurement": "GI50", "setting": "SW982", "result": "> 10", "unit": "µM"},
      {"measurement": "DC50", "setting": "IKZF1", "result": "> 9.99", "unit": "µM"},
      {"measurement": "HEPG2 Viability", "setting": "HEPG2", "result": ">9.99", "unit": "µM"},
      {"measurement": "IC50", "setting": "CYP 1A2", "result": 30, "unit": "µM"},
      {"measurement": "IC50", "setting": "CYP 2C9", "result": 30, "unit": "µM"},
      {"measurement": "efflux ratio", "setting": "Caco-2 permeability", "result": 2.64},
      {"measurement": "Papp A→B", "setting": "Caco-2 permeability; A-B", "result": 71, "unit": "nm/s"},
      {"measurement": "Papp B→A", "setting": "Caco-2 permeability; B-A", "result": 187, "unit": "nm/s"},
      {"measurement": "tumor volume, PDX model (SA13412)", "setting": "SA13412", "result": "no appreciable tumor growth"},
      {"measurement": "BRD9 Degradation kinetics, first value", "setting": "BRD9 [5]; first of three values, not explained", "result": 11, "unit": "nM"},
      {"measurement": "BRD9 Degradation kinetics, second value", "setting": "BRD9 [5]; second of three values, not explained", "result": "> 832", "unit": "nM"},
      {"measurement": "BRD9 Degradation kinetics, third value (rate)", "setting": "BRD9 [5]; third of three values", "result": 1.81, "unit": "h⁻¹"}
    ]}
  ]
}
